Patent US12522583B2, “Benzimidazole derivatives and aza-benzimidazole derivatives as Janus kinase 2 inhibitors and uses thereof” (Dana-Farber Cancer Institute, Inc., priority 2018, dated 2026)

Key:
Test in all cases: KINOMEscan
Assay type in all cases: binding
Conditions in all cases: read-out: percent control
NDR1 = NDR1 (Homo sapiens (Human), UniProt Q15208)
Source text: (§1) Example 2. In Vitro Kinase Selectivity Profiling of the Compounds of the Present Disclosure

VEGFR2 = VEGFR2 (Homo sapiens (Human), UniProt P35968)
Source text: as §1

BLK = BLK (Homo sapiens (Human), UniProt P51451)
Source text: as §1

NEK1 = NEK1 (Homo sapiens (Human), UniProt Q96PY6)
Source text: as §1

MKNK2 = MKNK2 (Homo sapiens (Human), UniProt Q9HBH9)
Source text: as §1

DLK = DLK (Homo sapiens (Human), UniProt Q12852)
Source text: as §1

ERN1 = ERN1 (Homo sapiens (Human), UniProt O75460)
Source text: as §1

WNK3 = WNK3 (Homo sapiens (Human), UniProt Q9BYP7)
Source text: as §1

CSNK1A1L = CSNK1A1L (Homo sapiens (Human), UniProt Q8N752)
Source text: as §1

ARK5 = ARK5 (Homo sapiens (Human), UniProt O60285)
Source text: as §1

PIK3CA = PIK3CA (Homo sapiens (Human), UniProt P42336)
Source text: as §1

AMPK-alpha2 = AMPK-alpha2 (Homo sapiens (Human), UniProt P54646)
Source text: as §1

NEK6 = NEK6 (Homo sapiens (Human), UniProt Q9HC98)
Source text: as §1

TSSK1B = TSSK1B (Homo sapiens (Human), UniProt Q9BXA7)
Source text: as §1

MEK3 = MEK3 (Homo sapiens (Human), UniProt P46734)
Source text: as §1

CAMK2G = CAMK2G (Homo sapiens (Human), UniProt Q13555)
CAMK2G, sequence (Q13555 whole entry): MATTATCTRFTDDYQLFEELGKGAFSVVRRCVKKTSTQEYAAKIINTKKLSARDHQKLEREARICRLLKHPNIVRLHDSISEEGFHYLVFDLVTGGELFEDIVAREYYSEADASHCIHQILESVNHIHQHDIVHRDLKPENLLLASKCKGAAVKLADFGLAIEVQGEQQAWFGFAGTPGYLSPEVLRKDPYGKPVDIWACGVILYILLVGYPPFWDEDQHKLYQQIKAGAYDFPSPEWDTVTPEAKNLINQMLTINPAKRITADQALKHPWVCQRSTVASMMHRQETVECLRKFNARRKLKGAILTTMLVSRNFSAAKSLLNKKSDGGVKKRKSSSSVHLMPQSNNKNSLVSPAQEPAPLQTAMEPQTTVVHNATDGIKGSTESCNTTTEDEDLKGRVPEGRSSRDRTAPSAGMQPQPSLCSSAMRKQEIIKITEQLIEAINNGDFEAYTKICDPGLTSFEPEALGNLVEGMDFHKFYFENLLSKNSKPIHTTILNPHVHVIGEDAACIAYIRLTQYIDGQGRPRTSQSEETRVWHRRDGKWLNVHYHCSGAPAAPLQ
Source text: as §1

CSNK1D = CSNK1D (Homo sapiens (Human), UniProt P48730)
Source text: as §1

CDKL5 = CDKL5 (Homo sapiens (Human), UniProt O76039)
Source text: as §1

CLK4 = CLK4 (Homo sapiens (Human), UniProt Q9HAZ1)
Source text: as §1

PIK3CB = PIK3CB (Homo sapiens (Human), UniProt P42338)
PIK3CB, sequence (P42338 whole entry): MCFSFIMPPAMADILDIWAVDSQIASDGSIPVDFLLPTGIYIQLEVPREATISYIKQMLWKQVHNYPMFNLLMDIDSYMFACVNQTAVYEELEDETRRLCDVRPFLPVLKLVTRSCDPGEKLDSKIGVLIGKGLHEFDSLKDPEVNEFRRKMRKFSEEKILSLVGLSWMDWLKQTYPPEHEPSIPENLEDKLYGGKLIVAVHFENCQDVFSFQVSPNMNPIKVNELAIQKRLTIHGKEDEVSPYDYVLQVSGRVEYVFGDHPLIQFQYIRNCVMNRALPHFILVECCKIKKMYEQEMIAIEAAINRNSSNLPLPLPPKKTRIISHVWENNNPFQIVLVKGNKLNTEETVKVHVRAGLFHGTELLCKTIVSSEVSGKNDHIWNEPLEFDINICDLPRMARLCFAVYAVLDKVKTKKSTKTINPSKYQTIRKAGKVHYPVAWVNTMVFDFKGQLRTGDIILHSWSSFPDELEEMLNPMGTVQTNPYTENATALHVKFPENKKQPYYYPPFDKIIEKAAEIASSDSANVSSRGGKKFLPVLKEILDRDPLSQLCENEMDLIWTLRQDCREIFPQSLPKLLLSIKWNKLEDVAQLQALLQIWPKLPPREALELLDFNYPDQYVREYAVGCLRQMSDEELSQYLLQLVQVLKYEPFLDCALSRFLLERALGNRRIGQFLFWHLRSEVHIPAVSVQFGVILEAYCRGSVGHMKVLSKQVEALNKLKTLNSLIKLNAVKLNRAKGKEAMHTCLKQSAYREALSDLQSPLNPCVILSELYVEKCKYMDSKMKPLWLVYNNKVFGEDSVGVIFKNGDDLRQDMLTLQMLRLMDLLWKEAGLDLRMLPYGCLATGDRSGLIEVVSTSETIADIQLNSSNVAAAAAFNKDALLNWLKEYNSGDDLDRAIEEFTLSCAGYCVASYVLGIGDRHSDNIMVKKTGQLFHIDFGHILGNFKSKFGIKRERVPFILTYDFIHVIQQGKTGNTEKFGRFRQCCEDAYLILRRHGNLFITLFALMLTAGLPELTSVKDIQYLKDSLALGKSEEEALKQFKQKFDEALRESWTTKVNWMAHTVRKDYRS
Source text: as §1

SGK2 = SGK2 (Homo sapiens (Human), UniProt Q9HBY8)
Source text: as §1

PRKD2 = PRKD2 (Homo sapiens (Human), UniProt Q9BZL6)
Source text: as §1

[1] = biological target: ABL1(M351T)-phosphorylated (Homo sapiens (Human), UniProt P00519, M351T)
Source text: as §1

MST4 = MST4 (Homo sapiens (Human), UniProt Q9P289)
MST4, sequence (Q9P289 whole entry): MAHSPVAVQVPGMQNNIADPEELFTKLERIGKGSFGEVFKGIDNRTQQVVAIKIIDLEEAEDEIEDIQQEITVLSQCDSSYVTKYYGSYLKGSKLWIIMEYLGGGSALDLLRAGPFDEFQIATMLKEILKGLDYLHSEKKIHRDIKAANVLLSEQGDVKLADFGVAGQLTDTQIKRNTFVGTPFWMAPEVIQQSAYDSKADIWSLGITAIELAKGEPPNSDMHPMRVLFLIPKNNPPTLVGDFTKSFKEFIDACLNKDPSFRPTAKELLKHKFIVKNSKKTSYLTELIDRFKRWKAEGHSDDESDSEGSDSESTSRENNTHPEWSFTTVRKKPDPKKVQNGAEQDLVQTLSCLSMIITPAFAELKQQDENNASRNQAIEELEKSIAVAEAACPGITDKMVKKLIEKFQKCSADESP
Source text: as §1

ROCK1 = ROCK1 (Homo sapiens (Human), UniProt Q13464)
Source text: as §1

CAMKK1 = CAMKK1 (Homo sapiens (Human), UniProt Q8N5S9)
Source text: as §1

MAP4K2 = MAP4K2 (Homo sapiens (Human), UniProt Q12851)
Source text: as §1

PIK3CA(E545A) = PIK3CA(E545A) (Homo sapiens (Human), UniProt P42336, E545A)
Source text: as §1

[2] = biological target: RPS6KA5(Kin.Dom.2-C-terminal) (Homo sapiens (Human), UniProt O75582)
RPS6KA5(Kin.Dom.2-C-terminal), sequence (O75582 426-687 limits assumed): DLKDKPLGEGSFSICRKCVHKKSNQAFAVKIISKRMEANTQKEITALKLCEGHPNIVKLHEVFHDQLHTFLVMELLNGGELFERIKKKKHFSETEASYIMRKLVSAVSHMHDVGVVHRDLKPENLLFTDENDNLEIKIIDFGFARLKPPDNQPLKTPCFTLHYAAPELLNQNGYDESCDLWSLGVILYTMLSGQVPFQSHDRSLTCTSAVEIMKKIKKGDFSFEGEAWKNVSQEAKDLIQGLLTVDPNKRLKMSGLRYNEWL
Source text: as §1

CDK3 = CDK3 (Homo sapiens (Human), UniProt Q00526)
Source text: as §1

MLK3 = MLK3 (Homo sapiens (Human), UniProt Q16584)
MLK3, sequence (Q16584 whole entry): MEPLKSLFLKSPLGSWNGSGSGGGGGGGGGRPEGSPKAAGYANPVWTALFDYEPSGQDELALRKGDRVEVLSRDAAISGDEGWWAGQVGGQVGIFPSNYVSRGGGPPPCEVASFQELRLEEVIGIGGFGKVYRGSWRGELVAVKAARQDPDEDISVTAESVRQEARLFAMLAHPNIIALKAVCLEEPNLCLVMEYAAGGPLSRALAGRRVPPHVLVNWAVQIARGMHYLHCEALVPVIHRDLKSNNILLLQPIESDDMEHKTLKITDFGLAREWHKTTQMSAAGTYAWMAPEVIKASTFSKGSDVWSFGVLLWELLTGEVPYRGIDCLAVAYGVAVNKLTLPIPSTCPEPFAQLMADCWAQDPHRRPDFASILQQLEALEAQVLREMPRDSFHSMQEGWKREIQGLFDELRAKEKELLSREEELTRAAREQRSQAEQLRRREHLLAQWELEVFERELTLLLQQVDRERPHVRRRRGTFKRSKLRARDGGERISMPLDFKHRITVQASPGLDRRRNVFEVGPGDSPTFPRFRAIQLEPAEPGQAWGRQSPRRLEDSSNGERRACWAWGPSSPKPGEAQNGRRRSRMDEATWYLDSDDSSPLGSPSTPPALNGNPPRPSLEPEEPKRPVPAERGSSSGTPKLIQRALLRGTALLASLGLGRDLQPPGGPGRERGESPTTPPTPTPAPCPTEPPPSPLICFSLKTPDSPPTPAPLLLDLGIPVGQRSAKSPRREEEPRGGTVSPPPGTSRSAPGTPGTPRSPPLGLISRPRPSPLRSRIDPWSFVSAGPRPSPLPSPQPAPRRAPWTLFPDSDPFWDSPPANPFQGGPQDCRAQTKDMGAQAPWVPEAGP
Source text: as §1

GRK7 = GRK7 (Homo sapiens (Human), UniProt Q8WTQ7)
Source text: as §1

[3] = biological target: ABL1(Q252H)-phosphorylated (Homo sapiens (Human), UniProt P00519, Q252H)
Source text: as §1

PRKCH = PRKCH (Homo sapiens (Human), UniProt P24723)
Source text: as §1

ASK1 = ASK1 (Homo sapiens (Human), UniProt Q99683)
ASK1, sequence (Q99683 whole entry): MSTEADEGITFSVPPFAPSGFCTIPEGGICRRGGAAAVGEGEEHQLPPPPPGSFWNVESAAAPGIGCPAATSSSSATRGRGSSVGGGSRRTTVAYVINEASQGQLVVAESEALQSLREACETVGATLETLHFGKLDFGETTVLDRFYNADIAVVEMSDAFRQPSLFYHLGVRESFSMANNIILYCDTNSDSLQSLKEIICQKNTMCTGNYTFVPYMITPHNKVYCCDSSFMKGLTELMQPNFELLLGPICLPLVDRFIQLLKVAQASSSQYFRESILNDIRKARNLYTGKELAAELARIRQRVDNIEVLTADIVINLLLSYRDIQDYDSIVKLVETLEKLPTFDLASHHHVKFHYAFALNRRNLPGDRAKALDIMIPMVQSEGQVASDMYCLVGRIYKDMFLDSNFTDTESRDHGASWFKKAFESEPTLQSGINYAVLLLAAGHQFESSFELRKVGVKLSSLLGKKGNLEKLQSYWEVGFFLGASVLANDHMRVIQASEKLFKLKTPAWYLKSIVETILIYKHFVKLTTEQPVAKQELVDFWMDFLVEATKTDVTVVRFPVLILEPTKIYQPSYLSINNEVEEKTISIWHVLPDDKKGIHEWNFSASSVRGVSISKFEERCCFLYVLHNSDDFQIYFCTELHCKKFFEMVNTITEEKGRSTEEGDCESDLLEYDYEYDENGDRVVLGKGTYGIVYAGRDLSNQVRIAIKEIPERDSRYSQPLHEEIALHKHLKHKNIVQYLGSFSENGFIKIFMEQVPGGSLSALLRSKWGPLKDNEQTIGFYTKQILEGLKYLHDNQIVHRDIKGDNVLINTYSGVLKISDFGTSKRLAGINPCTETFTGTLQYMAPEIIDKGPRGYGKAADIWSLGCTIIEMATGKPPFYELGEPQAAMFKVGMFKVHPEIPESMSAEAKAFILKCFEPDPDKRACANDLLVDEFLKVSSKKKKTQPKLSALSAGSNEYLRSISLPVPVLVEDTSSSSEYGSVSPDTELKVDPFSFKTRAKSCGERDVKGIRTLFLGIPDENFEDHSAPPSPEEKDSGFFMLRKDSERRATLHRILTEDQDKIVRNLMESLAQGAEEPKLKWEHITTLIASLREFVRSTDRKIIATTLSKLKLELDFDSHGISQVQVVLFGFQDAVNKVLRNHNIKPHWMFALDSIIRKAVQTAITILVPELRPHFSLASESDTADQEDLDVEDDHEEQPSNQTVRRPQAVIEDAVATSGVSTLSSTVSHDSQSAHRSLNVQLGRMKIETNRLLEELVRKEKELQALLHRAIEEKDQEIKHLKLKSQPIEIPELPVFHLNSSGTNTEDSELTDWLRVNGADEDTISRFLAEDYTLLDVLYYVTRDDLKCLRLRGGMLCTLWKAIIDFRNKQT
Source text: as §1

PRKX = PRKX (Homo sapiens (Human), UniProt P51817)
Source text: as §1

MAP3K1 = MAP3K1 (Homo sapiens (Human), UniProt Q13233)
Source text: as §1

p38-delta = p38-delta (Homo sapiens (Human), UniProt O15264)
p38-delta, sequence (O15264 whole entry): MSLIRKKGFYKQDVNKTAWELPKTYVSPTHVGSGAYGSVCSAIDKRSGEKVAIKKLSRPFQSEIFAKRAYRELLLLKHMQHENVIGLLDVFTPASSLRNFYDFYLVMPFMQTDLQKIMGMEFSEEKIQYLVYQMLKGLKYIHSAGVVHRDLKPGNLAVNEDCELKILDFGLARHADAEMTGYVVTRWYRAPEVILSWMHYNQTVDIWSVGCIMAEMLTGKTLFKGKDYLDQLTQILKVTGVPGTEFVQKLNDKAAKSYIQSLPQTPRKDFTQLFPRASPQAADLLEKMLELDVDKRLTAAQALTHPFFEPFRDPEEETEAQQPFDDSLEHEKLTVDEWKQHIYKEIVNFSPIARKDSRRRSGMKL
Source text: as §1

DAPK3 = DAPK3 (Homo sapiens (Human), UniProt O43293)
Source text: as §1

TAK1 = TAK1 (Homo sapiens (Human), UniProt O43318)
Source text: as §1

ASK2 = ASK2 (Homo sapiens (Human), UniProt O95382)
Source text: as §1

`CCN1CCN(Cc2ccc(Nc3nc4ccc(Oc5ccnc(NC(C)=O)c5)cc4n3C)cc2C(F)(F)F)CC1` [Compound I-2] gave a remaining binding at 1 µM (NDR1) of 90%, a remaining binding at 1 µM (VEGFR2) of 0.85% and a remaining binding at 1 µM (BLK) of 49%. For the same molecule, the remaining binding at 1 µM (NEK1) was 84%, the remaining binding at 1 µM (MKNK2) was 82% and the remaining binding at 1 µM (DLK) was 100%. For the same molecule, the remaining binding at 1 µM (ERN1) was 91%, the remaining binding at 1 µM (WNK3) was 100% and the remaining binding at 1 µM (CSNK1A1L) was 86%. It also gave a remaining binding at 1 µM (ARK5) of 100%, a remaining binding at 1 µM (PIK3CA) of 90% and a remaining binding at 1 µM (AMPK-alpha2) of 100%. For the same molecule, the remaining binding at 1 µM (NEK6) was 93%, the remaining binding at 1 µM (TSSK1B) was 100% and the remaining binding at 1 µM (MEK3) was 57%. It also gave a remaining binding at 1 µM (CAMK2G) of 100%, a remaining binding at 1 µM (CSNK1D) of 100% and a remaining binding at 1 µM (CDKL5) of 96%. For the same molecule, the remaining binding at 1 µM (CLK4) was 100%, the remaining binding at 1 µM (PIK3CB) was 100% and the remaining binding at 1 µM (SGK2) was 89%. The remaining binding at 1 µM (PRKD2) was 92%, the remaining binding at 1 µM [1] was 37% and the remaining binding at 1 µM (MST4) was 89%. The remaining binding at 1 µM (ROCK1) was 100%, the remaining binding at 1 µM (CAMKK1) was 100% and the remaining binding at 1 µM (MAP4K2) was 100%. The remaining binding at 1 µM (PIK3CA(E545A)) was 100%, the remaining binding at 1 µM [2] was 90% and the remaining binding at 1 µM (CDK3) was 100%. It also gave a remaining binding at 1 µM (MLK3) of 100%, a remaining binding at 1 µM (GRK7) of 88% and a remaining binding at 1 µM [3] of 36%. It also gave a remaining binding at 1 µM (PRKCH) of 100%, a remaining binding at 1 µM (ASK1) of 77% and a remaining binding at 1 µM (PRKX) of 100%. It also gave a remaining binding at 1 µM (MAP3K1) of 77%, a remaining binding at 1 µM (p38-delta) of 77% and a remaining binding at 1 µM (DAPK3) of 76%. It also gave a remaining binding at 1 µM (TAK1) of 28% and a remaining binding at 1 µM (ASK2) of 97%.

For `CCN1CCN(Cc2ccc(Nc3nc4ccc(Oc5ccnc(NC(C)=O)c5)c(C)c4n3C)cc2C(F)(F)F)CC1` [Compound I-6, N-(4-(2-(4-((4-ethylpiperazin-1-yl)methyl)-3-(trifluoromethyl)phenylamino)-1,7-dimethyl-1H-benzo[d]imidazol-6-yloxy)pyridin-2-yl)acetamide], the remaining binding at 1 µM (NDR1) was 100%, the remaining binding at 1 µM (VEGFR2) was 1.7% and the remaining binding at 1 µM (BLK) was 17%. The remaining binding at 1 µM (NEK1) was 79%, the remaining binding at 1 µM (MKNK2) was 66% and the remaining binding at 1 µM (DLK) was 100%. It also gave a remaining binding at 1 µM (ERN1) of 97%, a remaining binding at 1 µM (WNK3) of 100% and a remaining binding at 1 µM (CSNK1A1L) of 100%. The remaining binding at 1 µM (ARK5) was 100%, the remaining binding at 1 µM (PIK3CA) was 91% and the remaining binding at 1 µM (AMPK-alpha2) was 92%. The remaining binding at 1 µM (NEK6) was 99%, the remaining binding at 1 µM (TSSK1B) was 100% and the remaining binding at 1 µM (MEK3) was 87%. For the same molecule, the remaining binding at 1 µM (CAMK2G) was 100%, the remaining binding at 1 µM (CSNK1D) was 100% and the remaining binding at 1 µM (CDKL5) was 92%. It also gave a remaining binding at 1 µM (CLK4) of 81%, a remaining binding at 1 µM (PIK3CB) of 96% and a remaining binding at 1 µM (SGK2) of 85%. It also gave a remaining binding at 1 µM (PRKD2) of 100%, a remaining binding at 1 µM [1] of 27% and a remaining binding at 1 µM (MST4) of 100%. For the same molecule, the remaining binding at 1 µM (ROCK1) was 83%, the remaining binding at 1 µM (CAMKK1) was 100% and the remaining binding at 1 µM (MAP4K2) was 68%. The remaining binding at 1 µM (PIK3CA(E545A)) was 100%, the remaining binding at 1 µM [2] was 100% and the remaining binding at 1 µM (CDK3) was 74%. The remaining binding at 1 µM (MLK3) was 95%, the remaining binding at 1 µM (GRK7) was 95% and the remaining binding at 1 µM [3] was 24%. For the same molecule, the remaining binding at 1 µM (PRKCH) was 87%, the remaining binding at 1 µM (ASK1) was 97% and the remaining binding at 1 µM (PRKX) was 100%. For the same molecule, the remaining binding at 1 µM (MAP3K1) was 86%, the remaining binding at 1 µM (p38-delta) was 73% and the remaining binding at 1 µM (DAPK3) was 99%. For the same molecule, the remaining binding at 1 µM (TAK1) was 10% and the remaining binding at 1 µM (ASK2) was 89%.
